According to PubChem BioAssay AID1963848 (Molecular Pharmacology Branch, DTP, NCI, 2024):

Tested on: 379773-124-R-J2-PDC spheroid viability
Experiment: Anticancer human tumor 379773-124-R-J2-PDC patient-derived endometrial carcinoma cell line growth inhibition [POLQ]
Conditions: spheroids with HUVEC and MSC; for IC50: curve of first compound; for viability, T/C: stronger effect = lower value
Procedure, shortened: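 Patient-derived tumour cells were co-cultured with HUVEC and mesenchymal stem cells as multicellular spheroids at 37 °C. They were treated with POLQ inhibitors (novobiocin, ART-558, RP6685) alone or combined with other agents. Top concentrations were at or near clinical Cmax (otherwise 10 microM; SN-38 at 1 microM), decreasing in half-log steps.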

[1] = second compound 0.0316 µM, first compound 0.0316 µM
[2] = second compound 0.0316 µM, first compound 0.1 µM
[3] = second compound 0.1 µM, first compound 0.0316 µM
[4] = second compound 0.1 µM, first compound 0.1 µM
[5] = second compound 0.316 µM, first compound 0.0316 µM
[6] = second compound 0.316 µM, first compound 0.1 µM
[7] = second compound 1 µM, first compound 0.0316 µM
[8] = second compound 1 µM, first compound 0.1 µM
[9] = second compound 3.16 µM, first compound 0.0316 µM
[10] = second compound 3.16 µM, first compound 0.1 µM
[11] = second compound 10 µM, first compound 0.0316 µM
[12] = second compound 10 µM, first compound 0.1 µM
[13] = second compound 0.0316 µM, first compound 0.316 µM
[14] = second compound 0.0316 µM, first compound 1 µM
[15] = second compound 0.0316 µM, first compound 3.16 µM
[16] = second compound 0.0316 µM, first compound 10 µM
[17] = second compound 0.1 µM, first compound 0.316 µM
[18] = second compound 0.1 µM, first compound 1 µM
[19] = second compound 0.1 µM, first compound 3.16 µM
[20] = second compound 0.1 µM, first compound 10 µM
[21] = second compound 0.316 µM, first compound 0.316 µM
[22] = second compound 0.316 µM, first compound 1 µM
[23] = second compound 0.316 µM, first compound 3.16 µM
[24] = second compound 0.316 µM, first compound 10 µM
[25] = second compound 1 µM, first compound 0.316 µM
[26] = second compound 1 µM, first compound 1 µM
[27] = second compound 1 µM, first compound 3.16 µM
[28] = second compound 1 µM, first compound 10 µM
[29] = second compound 3.16 µM, first compound 0.316 µM
[30] = second compound 3.16 µM, first compound 1 µM
[31] = second compound 3.16 µM, first compound 3.16 µM
[32] = second compound 3.16 µM, first compound 10 µM
[33] = second compound 10 µM, first compound 0.316 µM
[34] = second compound 10 µM, first compound 1 µM
[35] = second compound 10 µM, first compound 3.16 µM
[36] = second compound 10 µM, first compound 10 µM
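Also: spheroids exposed to drugs for seven days before readout.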
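For viability, T/C in this document: percent viability relative to DMSO vehicle control taken as 100%.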

Cn1ncnc1[C@H]1c2n[nH]c(=O)c3cc(F)cc(c23)N[C@@H]1c1ccc(F)cc1 + COC1C(OC(N)=O)C(O)C(Oc2ccc3c(O)c(NC(=O)c4ccc(O)c(CC=C(C)C)c4)c(=O)oc3c2C)OC1(C)C
IC50 (second compound 0.0316 µM): > 0.1 µM | IC50 (second compound 0.1 µM): > 0.1 µM | IC50 (second compound 0.316 µM): > 0.1 µM | IC50 (second compound 1 µM): > 0.1 µM | IC50 (second compound 3.16 µM): > 0.1 µM | IC50 (second compound 10 µM): > 0.1 µM | viability, T/C (second compound 0.0316 µM, first compound 0.000316 µM): 97.8% | viability, T/C (second compound 0.0316 µM, first compound 0.001 µM): 82.9% | viability, T/C (second compound 0.0316 µM, first compound 0.00316 µM): 99.7% | viability, T/C (second compound 0.0316 µM, first compound 0.01 µM): 96.3% | viability, T/C [1]: 74% | viability, T/C [2]: 56.1% | viability, T/C (second compound 0.1 µM, first compound 0.000316 µM): 90.3% | viability, T/C (second compound 0.1 µM, first compound 0.001 µM): 93.4% | viability, T/C (second compound 0.1 µM, first compound 0.00316 µM): 110% | viability, T/C (second compound 0.1 µM, first compound 0.01 µM): 87.2% | viability, T/C [3]: 69.9% | viability, T/C [4]: 56.4% | viability, T/C (second compound 0.316 µM, first compound 0.000316 µM): 91.4% | viability, T/C (second compound 0.316 µM, first compound 0.001 µM): 78.5% | viability, T/C (second compound 0.316 µM, first compound 0.00316 µM): 82.5% | viability, T/C (second compound 0.316 µM, first compound 0.01 µM): 85.4% | viability, T/C [5]: 74% | viability, T/C [6]: 66.2% | viability, T/C (second compound 1 µM, first compound 0.000316 µM): 86.7% | viability, T/C (second compound 1 µM, first compound 0.001 µM): 83.2% | viability, T/C (second compound 1 µM, first compound 0.00316 µM): 85.2% | viability, T/C (second compound 1 µM, first compound 0.01 µM): 92.3% | viability, T/C [7]: 67.6% | viability, T/C [8]: 60.9% | viability, T/C (second compound 3.16 µM, first compound 0.000316 µM): 86.6% | viability, T/C (second compound 3.16 µM, first compound 0.001 µM): 89.3% | viability, T/C (second compound 3.16 µM, first compound 0.00316 µM): 89.5% | viability, T/C (second compound 3.16 µM, first compound 0.01 µM): 78.8% | viability, T/C [9]: 83.3% | viability, T/C [10]: 56.1% | viability, T/C (second compound 10 µM, first compound 0.000316 µM): 86% | viability, T/C (second compound 10 µM, first compound 0.001 µM): 87% | viability, T/C (second compound 10 µM, first compound 0.00316 µM): 89.3% | viability, T/C (second compound 10 µM, first compound 0.01 µM): 76% | viability, T/C [11]: 74% | viability, T/C [12]: 58.1%

O=C(c1cc(Cc2n[nH]c(=O)c3ccccc23)ccc1F)N1CCN(C(=O)C2CC2)CC1 + Nc1ccc(C#CCN(C(=O)Cc2ncc(C(F)(F)F)cc2C(F)(F)F)c2ccc(F)cc2)nn1
IC50 (second compound 0.0316 µM): 9.3 µM | IC50 (second compound 0.1 µM): 8.88 µM | IC50 (second compound 0.316 µM): > 10 µM | IC50 (second compound 1 µM): 9.76 µM | IC50 (second compound 3.16 µM): > 10 µM | IC50 (second compound 10 µM): 9.98 µM | viability, T/C [1]: 87.2% | viability, T/C [2]: 93.1% | viability, T/C [13]: 82.5% | viability, T/C [14]: 89.9% | viability, T/C [15]: 87.8% | viability, T/C [16]: 47.5% | viability, T/C [3]: 85.1% | viability, T/C [4]: 94.2% | viability, T/C [17]: 94% | viability, T/C [18]: 83% | viability, T/C [19]: 91.1% | viability, T/C [20]: 45.5% | viability, T/C [5]: 89.8% | viability, T/C [6]: 90% | viability, T/C [21]: 92.7% | viability, T/C [22]: 91.3% | viability, T/C [23]: 82% | viability, T/C [24]: 50.6% | viability, T/C [7]: 95.1% | viability, T/C [8]: 100% | viability, T/C [25]: 94% | viability, T/C [26]: 85.2% | viability, T/C [27]: 83.1% | viability, T/C [28]: 48.4% | viability, T/C [9]: 88.1% | viability, T/C [10]: 88.7% | viability, T/C [29]: 84.7% | viability, T/C [30]: 93.2% | viability, T/C [31]: 89.8% | viability, T/C [32]: 52.2% | viability, T/C [11]: 87.8% | viability, T/C [12]: 89.2% | viability, T/C [33]: 89.3% | viability, T/C [34]: 96.5% | viability, T/C [35]: 84.5% | viability, T/C [36]: 49.5%

C#Cc1c(F)ccc2cc(O)cc(-c3ncc4c(N5CC6CCC(C5)N6)nc(OCC56CCCN5CC(F)C6)nc4c3F)c12 (stereo unspecified) + Nc1ccc(C#CCN(C(=O)Cc2ncc(C(F)(F)F)cc2C(F)(F)F)c2ccc(F)cc2)nn1
IC50 (second compound 0.0316 µM): > 10 µM | IC50 (second compound 0.1 µM): > 10 µM | IC50 (second compound 0.316 µM): > 10 µM | IC50 (second compound 1 µM): > 10 µM | IC50 (second compound 3.16 µM): > 10 µM | IC50 (second compound 10 µM): > 10 µM | viability, T/C [1]: 92.3% | viability, T/C [2]: 91.9% | viability, T/C [13]: 95.5% | viability, T/C [14]: 89.1% | viability, T/C [15]: 95.8% | viability, T/C [16]: 101% | viability, T/C [3]: 92.7% | viability, T/C [4]: 110% | viability, T/C [17]: 88.6% | viability, T/C [18]: 98% | viability, T/C [19]: 103% | viability, T/C [20]: 107% | viability, T/C [5]: 91.3% | viability, T/C [6]: 89.3% | viability, T/C [21]: 92.1% | viability, T/C [22]: 94.3% | viability, T/C [23]: 104% | viability, T/C [24]: 111% | viability, T/C [7]: 84.5% | viability, T/C [8]: 97.6% | viability, T/C [25]: 99.9% | viability, T/C [26]: 86.1% | viability, T/C [27]: 106% | viability, T/C [28]: 103% | viability, T/C [9]: 99.3% | viability, T/C [10]: 88.7% | viability, T/C [29]: 105% | viability, T/C [30]: 103% | viability, T/C [31]: 103% | viability, T/C [32]: 104% | viability, T/C [11]: 88.9% | viability, T/C [12]: 88.6% | viability, T/C [33]: 98.5% | viability, T/C [34]: 85.6% | viability, T/C [35]: 91.3% | viability, T/C [36]: 102%
